According to publication PMC11312813, “An Optimized Peptide Antagonist of CXCR4 Limits Survival of BCR–ABL1-Transformed Cells in Philadelphia-Chromosome-Positive B-Cell Acute Lymphoblastic Leukemia” (International Journal of Molecular Sciences, 2024):
Counter-ions that a name gives are not always drawn.

Tests used:
[1] = tested on: BCR–ABL1-transformed mouse B cells; experiment: Real-time cell growth analysis by IncuCyte (GFP+ cell enrichment); format: cell-based; conditions: over 96 h
Procedure: A flat-bottom 96-well plate was coated with 0.01% poly-L ornithine (#P4957, Sigma-Aldrich, Hamburg, Germany) for 1 h at room temperature (RT). […] The cells were plated in 100 μL complete medium. […] Plate was prewarmed at 37 °C for 30 min prior to placing in the IncuCyte chamber. Scanning was conducted every two hours for total of 4 days.

[2] = tested on: AKT phosphorylation (PI3K signaling downstream of CXCR4); experiment: Western blot, AKT S473 phosphorylation in BCR–ABL1 cells; format: cell-based; conditions: 10 µM, 100 ng/mL mouse CXCL12, 5 min; n = 3
Procedure: BCR–ABL1 cells were collected as 5 × 10^6 cells/500 μL complete media and treated either with DMSO or different inhibitors in the absence and presence of 100 ng/mL mouse CXCL12 for 5, 15, and 30 min at 37 °C. Cells were then immediately transferred onto ice to stop the reaction and washed with ice-cold PBS. Cell extract was prepared by resuspending the cell pellet in 100 μL of radio-immunoprecipitation assay (RIPA) buffer supplemented with 1X protease inhibitor cocktail (#78429, Thermo Fisher), 1 mM sodium orthovanadate (Sigma-Aldrich), and 10 mM beta-glycerophosphate (Sigma-Aldrich). For each treatment, 15 μL of cell extract was mixed with 5 μL of 4X Laemmli buffer (reducing), boiled at 95 °C for 10 min, and run on 10% SDS-PAGE. Gels were wet-transferred to PVDF membranes (Millipore, Burlington, MA, USA) and stained with 0.1% ponceau-S solution to check for efficient blotting. The membranes were blocked with 3% BSA solution and incubated with primary antibodies at 4 °C overnight. The next day, primary antibodies were washed, and membranes were probed with horseradish peroxidase (HRP)-conjugated secondary antibodies at RT for 2 h. After washing, the blots were developed using Immobilon ECL Ultra Western HRP Substrate (#WBULS0500, Millipore), and images were acquired with a Fusion SL gel imaging system (Vilber Lourmat, Eberhardzell, Germany). […]

CXCR4 [3] = conditions: ref [14],[17]; cited from earlier work
CXCR4 [4] = experiment: Anti-CXCR4 antibody (clone 12G5) competition assay in SupB15 cells; format: binding, human; conditions: increasing concentrations (1 nM to 10 µM), n = 2–3
Procedure: An anti-CXCR4 competition assay was conducted as previously described. […] Afterward, the cells were washed to remove unbound inhibitors and antibody, and measured via FACS for the fluorescence signal of the bound antibody. The fluorescence signal corresponding to only antibody (no inhibitor) was considered to be 100% antibody binding.

[5] = tested on: BCR–ABL1-transformed mouse B cells; experiment: Flow cytometric viability analysis (viability dye); format: cell-based; set-up: Live gate (viability dye) / Dead gate (viability dye): unit not given here; conditions: for Cell viability of BCR–ABL1 cells: 1–72 h, live cell count normalized to DMSO; for Dead gate (viability dye) / Live gate (viability dye): JM#170 10 µM, representative histogram of n = 3
Procedure: Cells treated with either solvent control DMSO or different concentrations of inhibitors for different time points were collected and washed with ice-cold PBS. […] After washing, labeled cells were resuspended in 100 μL of PBS and acquired using LSR-Fortessa (BD Bioscience, Heidelberg, Germany). FACS data were analyzed with FlowJo software version 10.0.

CXCR4 [6] = experiment: CXCL12-driven calcium flux in 697 cells; format: cell-based; conditions: 1 µM, 10 min pre-treatment, 100 ng/mL human CXCL12; n = 3
Procedure: Ca^2+ signaling was analyzed as described previously. Briefly, SupB15 and 697 cells were collected at 1 × 10^6 cells/treatment and loaded with calcium-sensitive dye Indo-1 AM (#I1223, Invitrogen) and 0.5 mg/mL of pluronic F-127 (#P3000MP, Invitrogen) in their respective media supplemented with 1% FBS at 37 °C for 45 min. Cells were then washed and treated with the inhibitors for 10 min at 37 °C. Baseline signal for calcium was measured for 30 s via flow cytometry, followed by stimulation with 100 ng/mL human CXCL12. The area under the curve (AUC) of each calcium flux plot was determined using FlowJo. The AUC of the water control (solvent for CXCL12) was subtracted from each treatment to obtain the correct estimation of the calcium signal upon CXCL12 stimulation.

[7] = tested on: pro/anti-apoptotic genes (Jun, Bax, Bim, Bcl2, Bcl-xl, FasL); experiment: Real-time gene expression analysis (Taqman) in BCR–ABL1 cells; format: cell-based, mouse; conditions: 10 µM, n = 3
Procedure: BCR–ABL1 cells were plated at 1 × 10^6 cells/well of a 12-well plate in 1 mL of complete media and treated with DMSO or various inhibitors. After specific time points (24 and 48 h), RNA was isolated from cells using a ReliaPrep Cell RNA miniprep kit (#Z6011, Promega). Fifty nanograms of total RNA was reverse-transcribed using a high-capacity RNA to cDNA kit (#4387406, Thermo Fisher), and gene expression was measured via Taqman assay using Taqman Gene expression master mix (#4369016, Thermo Fisher) following ghd manufacturer’s protocol. The following Taqman probes were used: Jun (Mm07296811_s1), Bax (Mm00432051_m1), Bim (Mm00437796_m1), Bcl2 (Mm00477631_m1), Bcl-xl (00437783_m1), FasL (Mm00438864_m1), and beta actin (04394036_g1).

caspase 3/7 = experiment: Caspase-Glo 3/7 activation assay in BCR–ABL1 cells; format: cell-based, mouse; conditions: 10 µM, 24 and 48 h; n = 3
Procedure: BCR–ABL1 cells were plated at 0.5 × 10^5 cells/well of a 96-well plate in 100 μL of complete media and treated with DMSO or various inhibitors. At specific time points (24, 48 and 72 h), activation of caspases was measured with a Caspase-Glo® 3/7 Assay (#G8090) and Caspase-Glo® 8 Assay (#G8200, Promega, Madison, WI, USA) following the manufacturer’s instructions.

Molecule: c1cc(CN2CCCNCCNCCCNCC2)ccc1CN1CCCNCCNCCCNCC1 [AMD3100, AMD3100 octahydrochloride hydrate, reference compound]
- GFP enrichment (BCR–ABL1 cell growth) vs DMSO ([1]; 5 µM): also detectable
- GFP enrichment (BCR–ABL1 cell growth) vs DMSO ([1]; 10 µM, mean ± SEM, n = 4–5): only distinct at later time points
- CXCL12-induced AKT S473 phosphorylation [2]: this elevation was blocked
- CXCL12-induced calcium signaling (CXCR4 [3]): block the intracellular calcium response
- 12G5 antibody binding to CXCR4 (CXCR4 [4]): significantly inhibited 12G5 binding
- Cell viability of BCR–ABL1 cells ([5]; 10 µM, n = 3): did not induce any loss of cell viability
- CXCL12-induced calcium flux, 697 (CXCR4 [6]): completely blocked the calcium flux
- Pro/anti-apoptotic gene expression ([7]; 24 and 48 h): did not upregulate any gene expression
- Caspase 3/7 activation vs DMSO (caspase 3/7): did not induce any caspase activation

Molecule: ILRWSRK * (Pal)-NH2 [JM#170, lipid-conjugated truncated version of EPI-X4, CXCR4 antagonist]
- GFP enrichment (BCR–ABL1 cell growth) vs DMSO ([1]; 10 µM, mean ± SEM, n = 4–5): significant reduction in GFP enrichment
- CXCL12-induced AKT S473 phosphorylation [2]: this elevation was blocked
- CXCL12-induced calcium signaling (CXCR4 [3]): block CXCL12-induced calcium signaling
- 12G5 antibody binding to CXCR4 (CXCR4 [4]): significantly inhibited 12G5 binding
- Cell viability of BCR–ABL1 cells ([5]; 10 µM, n = 3): strong and rapid cell death
- Cells dying ([5]; 10 µM, within 1 h of treatment, n = 3): ~ 70%
- Dead gate (viability dye) ([5]; 1 h): 64.5
- Live gate (viability dye) ([5]; 1 h): 35.5
- Dead gate (viability dye) ([5]; 24 h): 85.0
- Live gate (viability dye) ([5]; 24 h): 15.0
- Dead gate (viability dye) ([5]; 48 h): 76.4
- Live gate (viability dye) ([5]; 48 h): 23.6
- Dead gate (viability dye) ([5]; 72 h): 63.6
- Live gate (viability dye) ([5]; 72 h): 36.4
- CXCL12-induced calcium flux, 697 (CXCR4 [6]): completely blocked the calcium flux
- Bax gene expression ([7]; 24 h): mildly upregulated
- Bcl2 gene expression ([7]; 24 h): significant increase
- Bcl-xl gene expression ([7]; 24 h): not altered at all
- Bim gene expression ([7]; 24 h): significantly elevated
- Jun gene expression ([7]; 24 h): significantly elevated
- Bax, Bim and Bcl2 gene expression ([7]; 48 h): still significantly elevated levels
- FasL gene expression [7]: inactivation of FasL
- Caspase 3/7 activation vs DMSO (caspase 3/7): significant increase in caspase 3/7 activation
